In US5114936A, “6,7-dihydro-3-phenyl-1,2-benzisoxazol-4(5H)-ones and -ols, compositions and pharmaceutical use” (Hoechst-Roussel Pharmaceuticals Incorporated, priority 1991, dated 1992):
Counter-ions that a name gives are not always drawn.

What follows are molecules tested on apomorphine climbing (assay: Climbing Mice Assay (antagonism of apomorphine-induced climbing)). Settings: Mus musculus; ip; apomorphine 1.5 mg/kg subcutaneously.
Assay type: in vivo, mice (CK-1 male mice)
Method: Antipsychotic activity is determined in the Climbing Mice Assay by a method similar to that described by P. Protais, et al., Psychopharmacol., 50, 1 (1976) and B. Costall, Eur. J. Pharmacol., 50, 39 (1978).
The subject CK-1 male mice (23-27 grams) are group-housed under standard laboratory conditions. The mice are individually placed in wire mesh stick cages (4"×4"×10") and are allowed one hour for adaptation and exploration of the new environment. Then apomorphine is injected subcutaneously at 1.5 mg/kg, a dose causing climbing in all subjects for 30 minutes.
Compounds to be tested for antipsychotic activity are injected intraperitoneally or given orally at various time intervals, e.g. 30 minutes, 60 minutes, etc. prior to the apomorphine challenge at a screening dose of 10-60 mg/kg.
For evaluation of climbing, 3 readings are taken at 10, 20 and 30 minutes after apomorphine administration according to the following scale:
4 paws on bottom (no climbing)
2 paws on the wall (rearing)
4 paws on the wall (full climb)
Mice consistently climbing before the injection of apomorphine will be discarded.
With full-developed apomorphine climbing, the animals are hanging on to the cage walls, rather motionless, over longer periods of time. By contrast, climbs due to mere motor stimulation usually only last a few seconds.
The climbing scores are individually totaled (maximal score: 6 per mouse over 3 readings) and the total score of the control group (vehicle intraperitoneally-apomorphine subcutaneously) is set to 100%. ED50 values with 95% confidence limits, calculated by a linear regression analysis, of some of the compounds of the instant invention as well as a standard antipsychotic agent are presented in Table I.
Molecule `Cl.O=C1c2c(-c3ccccc3)noc2CCC1CCCN1CCC(c2ccc(F)cc2)CC1` (stereo not drawn) [6,7-dihydro-5-[3-(4-(4-fluorophenyl)-1-piperidinyl)-propyl]-3-phenyl-1,2-benzisoxazol-4(5H)-one hydrochloride] has an ED50 of 6.36 mg/kg.
`COc1ccccc1N1CCN(CCCC2CCc3onc(-c4ccccc4)c3C2=O)CC1` (stereo not drawn) [Example 14, 6,7-Dihydro-5-[3-(4-(2-methoxyphenyl)-1-piperazinyl)-propyl]-3-phenyl-1,2-benzisoxazol-4(5H)-one dihydrochloride] showed an ED50 of 15 mg/kg.
`Cl.O=C(c1ccc(F)cc1)C1CCN(CCCC2CCc3onc(-c4ccccc4F)c3C2=O)CC1` (stereo not drawn) [Example 19, 6,7-Dihydro-5-[3-(4-(4-fluorobenzoyl)-1-piperidinyl)-propyl]-3-(2-fluorophenyl)-1,2-benzisoxazol-4(5H)-one hydrochloride] was tested, and the ED50 was 2.9 mg/kg.
Molecule `O=C(c1ccc(F)cc1)C1CCN(CCCC2CCc3onc(-c4ccc(F)cc4)c3C2=O)CC1` (stereo not drawn) [Example 20, 6,7-Dihydro-5-[3-(4-(4-fluorobenzoyl)-1-piperidinyl)-propyl]-3-(4-fluorophenyl)-1,2-benzisoxazol-4(5H)-one hydrochloride] has an ED50 of 6.2 mg/kg.
In the case of `O=C(c1ccc(F)cc1)C1CCN(CCCC2CCc3onc(-c4cccc(F)c4)c3C2=O)CC1` (stereo not drawn) [Example 26, 6,7-Dihydro-5-[3-(4-(4-fluorobenzoyl)-1-piperidinyl)-propyl]-3-(3-fluorophenyl)-1,2-benzisoxazol-4(5H)-one hydrochloride], the ED50 is reported as 5.7 mg/kg.
With `CN1CCN(C2=Nc3cc(Cl)ccc3Nc3ccccc32)CC1` [clozapine, reference compound] the ED50 was 9 mg/kg.

The molecules below were run on phenyl-p-quinone writhing (assay: phenyl-p-quinone writhing assay (analgesia)). Settings: Mus musculus, sc; s.c; read-out: ED50 Inhibition of Writhing.
Assay type: in vivo, mice
Excerpt: Exptl. Biol. Med. 95, 729 (1957)]
Work on `COc1ccccc1N1CCN(CCCC2CCc3onc(-c4ccccc4)c3C2=O)CC1` (stereo not drawn) [Example 14, 6,7-Dihydro-5-[3-(4-(2-methoxyphenyl)-1-piperazinyl)-propyl]-3-phenyl-1,2-benzisoxazol-4(5H)-one dihydrochloride] yielded an ED50 of 5.18 mg/kg.
In the case of `O=C(c1ccc(F)cc1)C1CCN(CCCC2CCc3onc(-c4ccccc4)c3C2=O)CC1` (stereo not drawn) [Example 15, 6,7-Dihydro-5-[3-(4-(4-fluorobenzoyl)-1-piperidinyl)-propyl]-3-phenyl-1,2-benzisoxazol-4(5H)-one hydrochloride], the ED50 is reported as 3.99 mg/kg.
Work on `CCC(=O)O[C@](Cc1ccccc1)(c1ccccc1)[C@H](C)CN(C)C` [propoxyphene, reference compound] yielded an ED50 of 3.9 mg/kg.
